Assay results from US8614201B2 (Janssen Pharmaceutica NV, priority 2009, dated 2013).

target: Human TRPA1 (Homo sapiens, UniProt O75762); assay: Assay 1: In vitro cellular testing of TRPA1 modulation (CHO-TREx, Fluo-3 calcium fluorescence, AITC agonist); format: cell-based; design: expressed in transfected cells; host or cells: CHO-TREx cells (Invitrogen), vector pcDNA4/TO; details: CHO-TREx cells expressing human TRPA1; Fluo-3 fluorescence (FLIPR/Tetra); agonist 15 μM allyl isothiocyanate (AITC); 30 minute antagonist incubation
Outline: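 Antagonist potency is the 50% reduction of the AITC (15 μM) calcium response, Hill-fitted against no-antagonist and 10 μM ruthenium red controls. Fluo-3-loaded (4 μM) CHO-TREx cells with tetracycline-inducible human TRPA1 got compound in HEPES saline pH 7.4 for 30 min, usually from 10 μM in three-fold dilutions.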

Chain of Human TRPA1 (O75762 whole entry): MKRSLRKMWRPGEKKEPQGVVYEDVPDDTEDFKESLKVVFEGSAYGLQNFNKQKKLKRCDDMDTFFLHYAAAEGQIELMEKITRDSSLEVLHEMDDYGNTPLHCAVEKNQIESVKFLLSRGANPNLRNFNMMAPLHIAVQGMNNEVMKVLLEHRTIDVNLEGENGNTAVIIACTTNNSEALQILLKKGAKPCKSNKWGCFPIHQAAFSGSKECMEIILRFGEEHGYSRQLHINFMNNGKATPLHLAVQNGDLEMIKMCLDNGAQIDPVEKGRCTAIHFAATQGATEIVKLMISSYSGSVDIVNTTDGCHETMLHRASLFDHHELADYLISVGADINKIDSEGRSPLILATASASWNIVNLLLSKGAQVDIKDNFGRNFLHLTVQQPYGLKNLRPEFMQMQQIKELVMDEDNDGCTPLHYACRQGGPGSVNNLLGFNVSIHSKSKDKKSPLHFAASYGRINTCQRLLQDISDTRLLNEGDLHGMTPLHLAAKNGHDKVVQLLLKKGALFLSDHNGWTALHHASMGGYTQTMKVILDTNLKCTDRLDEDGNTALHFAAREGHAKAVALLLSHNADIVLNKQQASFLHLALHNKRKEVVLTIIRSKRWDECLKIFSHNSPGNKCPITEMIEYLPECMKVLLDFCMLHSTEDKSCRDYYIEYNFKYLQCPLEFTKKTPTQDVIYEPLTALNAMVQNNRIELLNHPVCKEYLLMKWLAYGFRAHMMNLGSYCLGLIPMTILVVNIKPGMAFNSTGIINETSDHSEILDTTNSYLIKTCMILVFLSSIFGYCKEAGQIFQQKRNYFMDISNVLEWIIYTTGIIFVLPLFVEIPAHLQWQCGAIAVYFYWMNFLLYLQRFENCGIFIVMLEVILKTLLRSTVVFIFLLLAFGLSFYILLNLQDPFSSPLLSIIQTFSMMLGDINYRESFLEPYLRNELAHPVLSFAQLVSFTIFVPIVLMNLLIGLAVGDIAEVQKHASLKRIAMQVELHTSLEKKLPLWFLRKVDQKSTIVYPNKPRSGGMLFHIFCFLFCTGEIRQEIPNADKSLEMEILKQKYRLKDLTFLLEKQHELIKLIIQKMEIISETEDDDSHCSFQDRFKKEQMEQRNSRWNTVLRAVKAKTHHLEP

Point of comparison: O=C(NCc1cc(-c2ccc(OC(F)(F)F)cc2)ncn1)[C@@H]1CCCN1S(=O)(=O)c1ccc(F)cc1 [Example 177, 1-(4-Fluorobenzenesulfonyl)-pyrrolidine-2S-carboxylic acid [6-(4-trifluoromethoxyphenyl)-pyrimidin-4-ylmethyl]-amide], IC50 71 nM. Against it:
- O=C(NCc1cc(-c2ccc(C(F)(F)F)cc2)ncn1)[C@@H]1CCCN1S(=O)(=O)c1ccc(Cl)nc1 [Example 174, 1-(6-Chloropyridine-3-sulfonyl)-pyrrolidine-2S-carboxylic acid [6-(4-trifluoromethylphenyl)-pyrimidin-4-ylmethyl]-amide] — within 1.5-fold, 95 nM
- O=C(NCc1cc(-c2ccc(C(F)(F)F)cc2)ncn1)[C@@H]1CCCN1S(=O)(=O)c1ccoc1 [Example 176, 1-(Furan-3-sulfonyl)-pyrrolidine-2S-carboxylic acid [6-(4-trifluoromethylphenyl)-pyrimidin-4-ylmethyl]-amide] — 1.6-fold lower, 45 nM
- O=C(NCc1cc(-c2ccc(C(F)(F)F)nc2)ncn1)[C@@H]1CCCN1S(=O)(=O)c1ccc(F)cc1 [Example 178, 1-(4-Fluoro-benzenesulfonyl)-pyrrolidine-2S-carboxylic acid [6-(6-trifluoromethyl-pyridin-3-yl)-pyrimidin-4-ylmethyl]-amide] — 2.9-fold higher, 203 nM
- O=C(NCc1cc(-c2ccc(C(F)(F)F)cc2)ncn1)[C@@H]1CC(F)(F)CN1S(=O)(=O)c1ccc(F)cc1 [Example 179, (2S)-4,4-Difluoro-1-(4-fluoro-benzenesulfonyl)-pyrrolidine-2-carboxylic acid [6-(4-trifluoromethyl-phenyl)-pyrimidin-4-ylmethyl]-amide] — 3.2-fold higher, 229 nM
- O=C(NCc1cc(-c2ccc(C(F)(F)F)cc2)ncn1)[C@@H]1CC(F)(F)CN1S(=O)(=O)c1ccc(Cl)s1 [Example 180, (2S)-1-(5-Chloro-thiophene-2-sulfonyl)-4,4-difluoro-pyrrolidine-2-carboxylic acid [6-(4-trifluoromethyl-phenyl)-pyrimidin-4-ylmethyl]-amide] — 3.2-fold higher, 228 nM
- Cc1nc(CNC(=O)[C@@H]2CCCN2S(=O)(=O)c2ccc(F)cc2)cc(-c2ccc(C(F)(F)F)cc2)n1 [Example 183, 1-(4-Fluoro-benzenesulfonyl)-pyrrolidine-2S-carboxylic acid [2-methyl-6-(4-trifluoromethyl-phenyl)-pyrimidin-4-ylmethyl]-amide] — 3.5-fold lower, 20 nM
- O=C(NCc1nccc(-c2ccc(C(F)(F)F)cc2)n1)[C@@H]1CCCN1S(=O)(=O)c1ccc(F)cc1 [Example 185, (2S)-1-(4-Fluoro-benzenesulfonyl)-pyrrolidine-2-carboxylic acid [4-(4-trifluoromethyl-phenyl)-pyrimidin-2-ylmethyl]-amide] — 6.1-fold higher, 433 nM
- O=C(NCc1nccc(-c2ccc(C(F)(F)F)cc2)n1)[C@@H]1CCCN1S(=O)(=O)c1ccc(Cl)s1 [Example 186] — 3.2-fold higher, 227 nM
- O=C(NCc1ccnc(-c2ccc(C(F)(F)F)cc2)n1)[C@@H]1CCCN1S(=O)(=O)c1ccc(F)cc1 [Example 187, (2S)-1-(4-Fluoro-benzenesulfonyl)-pyrrolidine-2-carboxylic acid [2-(4-trifluoromethyl-phenyl)-pyrimidin-4-ylmethyl]-amide] — 11-fold higher, 806 nM
- O=C(NCc1cc(-c2ccc(C(F)(F)F)cc2)nc(N2CCC(Cc3ccccc3)CC2)n1)[C@@H]1CCCN1S(=O)(=O)c1ccc(F)cc1 [Example 189, 1-(4-Fluoro-benzenesulfonyl)-pyrrolidine-2S-carboxylic acid [2-(4-benzyl-piperidin-1-yl)-6-(4-trifluoromethyl-phenyl)-pyrimidin-4-ylmethyl]-amide] — 36-fold lower, 2 nM
- O=C(NCc1cc(-c2ccc(C(F)(F)F)cc2)nc(NC2CCCC2)n1)[C@@H]1CCCN1S(=O)(=O)c1ccc(F)cc1 [Example 193, 1-(4-Fluoro-benzenesulfonyl)-pyrrolidine-2S-carboxylic acid [2-cyclopentylamino-6-(4-trifluoromethyl-phenyl)-pyrimidin-4-ylmethyl]-amide] — within 1.5-fold, 85 nM
